Data published in patent publication US8268836B2, “Compound useful as a c-Met inhibitor” (Eli Lilly and Company, priority 2010, dated 2012).

Key:
[1] = molecular target: T1, Met (pY1349) in NCl-H460 cells (Homo sapiens, UniProt P08581); assay: HGF stimulated Met (pY1349) NCI-H460 cell-based ELISA; conditions: HGF 100 ng/mL stimulated NCI-H460 cells; read-out: relative IC50, H460 assay (c-Met phosphorylation)
T1 construct: host or cells: NCI-H460
Protocol: NCl—H460 cells (purchased from ATCC) are cultured in RPMI 1640 media (Invitrogen) supplemented with 10% Fetal Bovine Serum (FBS) and plated (prior to becoming 70% confluent) in 96-well flat-bottom plates at a density of 20,000 cells per well in 80 μL volume. The cells are then incubated overnight in a cell culture incubator (5% CO2, 95% Relative Humidity (RH) and 37° C.) and allowed to attach to the plate. The following morning the cells are washed with 2 volumes of a Reduced Serum Media (RSM, RPMI 1640 media supplemented with 0.5% FBS). After removal of the last wash, 80 μL of RSM is added to each well of the cell plates. The cell plates are incubated for 2.5 h in a cell culture incubator, and then dosed with compounds. Compound inhibitors are first solubilized at 10 mM in 100% DMSO and then diluted to 100 μM with 2% DMSO RSM. […] After 1 h capture (at RT) the MSD® plate wells are washed with 1× Tris Wash Buffer, and then 150 μL of 1× Read Buffer T (with surfactant, MSD®) is added. Immediately after the addition of the Read Buffer, the plates are analyzed with a SECTOR 6000 MSD® Imager plate reader. Relative IC50 values are determined using MSD activity units by calculating percent inhibition with respect to on-plate “MIN” and “MAX” controls and then fitting the percent inhibition values and ten-point dose response data to a four-parameter logistic equation.

[2] = test system: U87MG glioblastoma xenografts; assay: Xenograft tumor model U87MG; format: in vivo, mice
Protocol: (§1) Human glioblastoma cells U87MG, human gastric cancer cells MKN45, or human pancreatic KP4 cells are cultured and implanted subcutaneously in the rear flank of female CD-1 nu/nu strain mice which have been acclimated for one week in the animal facility after receipt from the vendor. Mice are randomized into groups of 10 mice per group. Testing compound is prepared in an appropriate vehicle and is administered by oral gavage when tumors are established (7-21 days after implant, or when the mean tumor volume reaches ˜100 mm^3). Tumor response is determined by tumor volume measurement performed twice a week during the course of treatment. Fluctuations in body weight are also monitored as a general measurement of toxicity. The compound of example 1 is orally administered twice a day for 28 days.
(§2) For statistical analysis, the individual subject tumor volumes are transformed to log volume and are analyzed with a two-way repeated measures analysis of variance by time and treatment using the MIXED procedures in SAS software (version 8.2). The correlation model for the repeated measures is spatial power. Treated groups are compared to the control group at the final time point. The MIXED procedure is also used separately for each treatment group to calculate adjusted means and standard errors at each time point. Both analyses account for the autocorrelation within each subject.

[3] = test system: MKN45 gastric xenografts; assay: Xenograft tumor model MKN45; format: in vivo, mice
Protocol: as §1, §2

[4] = Rat bioavailability study; format: in vivo
Protocol: In rat bioavailability studies, each compound is administered intravenously (IV) or orally (PO). Intravenous dosing is formulated in solution formulation and oral dosing is formulated in 10% w/v acacia. Rat blood samples are collected using anti-coagulant (EDTA) collection tubes and centrifugation is performed to obtain plasma samples. Aliquots of plasma are pipetted and stored immediately at <−20° C. Shipments of plasma samples are packed in dry ice if needed and samples are frozen at <−20° C. until analysis.
A stock solution of each drug is prepared and is diluted into pooled rat plasma to prepare standards. Plasma standards or samples are treated by protein precipitation or liquid-liquid extraction using organic solvent containing internal standard. The mixtures are centrifuged and aliquots of the resulting supernatant fractions are transferred. In the case of protein precipitation, supernatant is diluted and analyzed using a Mass Spectrometer coupled to a HPLC System and an autosampler. In the case of liquid-liquid-extraction, supernatant is dried under N2 at 40° C., reconstituted and analyzed using a Mass Spectrometer coupled to a HPLC System and an autosampler. Quantitation is performed using multiple reaction monitoring (MRM) and linear regression plots of compounds to internal standard peak area ratios versus drug concentrations.

[5] = 4 mg/kg oral twice a day for 28 days
[6] = 8 mg/kg oral twice a day for 28 days
[7] = 16 mg/kg oral twice a day for 28 days
[8] = 32 mg/kg oral twice a day for 28 days
[9] = plasma, PO 10 mg/kg in 10% acacia, Example 1 dosed as mesylate salt

T1 sequence (P08581 25-1390): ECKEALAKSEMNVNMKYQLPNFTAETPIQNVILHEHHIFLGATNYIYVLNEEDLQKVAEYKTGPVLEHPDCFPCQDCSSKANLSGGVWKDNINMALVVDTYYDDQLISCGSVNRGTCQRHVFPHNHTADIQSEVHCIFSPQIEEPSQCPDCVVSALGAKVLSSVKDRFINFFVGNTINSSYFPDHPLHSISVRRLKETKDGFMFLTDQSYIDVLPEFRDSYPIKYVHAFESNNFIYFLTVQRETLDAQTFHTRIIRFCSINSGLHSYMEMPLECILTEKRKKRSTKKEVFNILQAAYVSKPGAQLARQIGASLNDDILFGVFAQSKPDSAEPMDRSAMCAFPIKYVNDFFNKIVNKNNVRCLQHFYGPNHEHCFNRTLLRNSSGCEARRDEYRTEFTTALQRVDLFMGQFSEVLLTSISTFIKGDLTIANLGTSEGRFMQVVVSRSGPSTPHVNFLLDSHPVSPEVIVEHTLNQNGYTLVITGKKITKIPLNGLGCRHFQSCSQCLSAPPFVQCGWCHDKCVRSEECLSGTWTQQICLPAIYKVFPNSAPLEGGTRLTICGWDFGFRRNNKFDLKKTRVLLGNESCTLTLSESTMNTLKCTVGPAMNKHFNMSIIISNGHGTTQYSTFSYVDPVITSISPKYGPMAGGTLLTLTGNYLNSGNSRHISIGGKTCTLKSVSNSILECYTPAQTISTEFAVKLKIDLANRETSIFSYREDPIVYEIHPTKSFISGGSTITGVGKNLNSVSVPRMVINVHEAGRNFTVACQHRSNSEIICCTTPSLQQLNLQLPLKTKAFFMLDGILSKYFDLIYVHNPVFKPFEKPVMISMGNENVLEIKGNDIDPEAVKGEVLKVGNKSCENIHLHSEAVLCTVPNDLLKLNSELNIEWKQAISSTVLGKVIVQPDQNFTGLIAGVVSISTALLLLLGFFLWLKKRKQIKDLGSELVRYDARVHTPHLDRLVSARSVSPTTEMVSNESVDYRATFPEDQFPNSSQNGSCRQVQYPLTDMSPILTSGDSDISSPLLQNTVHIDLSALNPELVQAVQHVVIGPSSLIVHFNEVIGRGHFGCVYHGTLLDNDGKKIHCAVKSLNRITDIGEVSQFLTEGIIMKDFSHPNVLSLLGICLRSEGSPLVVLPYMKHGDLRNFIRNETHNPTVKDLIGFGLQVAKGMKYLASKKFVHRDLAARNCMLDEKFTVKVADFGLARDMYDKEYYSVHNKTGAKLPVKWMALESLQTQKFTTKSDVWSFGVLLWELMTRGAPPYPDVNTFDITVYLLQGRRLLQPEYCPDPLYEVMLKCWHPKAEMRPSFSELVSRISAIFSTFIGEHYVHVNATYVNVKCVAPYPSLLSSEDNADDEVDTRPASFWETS

SMILES: Cn1cc(-c2ccc3nnc(Sc4ccc5nn(C)cc5c4)n3n2)cn1 [Example 1, 6-(1-Methyl-1H-pyrazol-4-yl)-3-(2-methyl-2H-indazol-5-ylthio)-[1,2,4]triazolo[4,3-b]pyridazine]
- IC50 [1]: 36 nM
- Mean Tumor Volume ± Standard Error ([2]; 2 mg/kg oral twice a day for 28 days): 271 ± 61 mm^3
- Mean Tumor Volume ± Standard Error [2, 5]: 137 ± 29 mm^3
- Mean Tumor Volume ± Standard Error [2, 6]: 108 ± 16 mm^3
- Mean Tumor Volume ± Standard Error [2, 7]: 116 ± 19 mm^3
- Mean Tumor Volume ± Standard Error [2, 8]: 46 ± 4 mm^3
- Mean Tumor Volume ± Standard Error [3, 5]: 329 ± 54 mm^3
- Mean Tumor Volume ± Standard Error [3, 6]: 296 ± 29 mm^3
- Mean Tumor Volume ± Standard Error [3, 7]: 166 ± 10 mm^3
- Mean Tumor Volume ± Standard Error [3, 8]: 161 ± 14 mm^3
- fold increase in oral bioavailability vs reference compound [4]: 4.5 fold
- fold longer terminal elimination half life vs reference compound ([4]; 1 mg/kg intravenous dose): 4 fold
- fold lower plasma clearance vs reference compound ([4]; 1 mg/kg intravenous dose): 18 fold
- fold higher exposure by peak plasma concentration vs reference compound ([4]; 10 mg/kg oral dose, 10% acacia): 57 fold
- fold higher exposure by plasma AUC vs reference compound ([4]; 10 mg/kg oral dose, 10% acacia): 93 fold
- clearance ([4]; plasma, IV 1 mg/kg solution, Example 1 dosed as mesylate salt): 1.7 mL/min/kg
- half-life ([4]; plasma, IV 1 mg/kg solution, Example 1 dosed as mesylate salt, read-out: T½ (converted)): 2.3 h
- Vd ([4]; plasma, IV 1 mg/kg solution, Example 1 dosed as mesylate salt, read-out: Vdss): 0.3 L/kg
- AUC [4, 9]: 73800 ng·h/mL
- Cmax [4, 9]: 9400 ng/mL
- Tmax [4, 9]: 3.33 h
- bioavailability ([4]; plasma, PO 10 mg/kg vs IV 1 mg/kg, Example 1 dosed as mesylate salt, read-out: F % (oral bioavailability)): 65.8%
